Like-named read-outs stand apart in the source and are kept apart here. Bounds are passed on as bounds.

In test [1] the target is recombinant human Myt1 (full length PKMYT1) (Homo sapiens (Human), UniProt Q99640). The test can be described thus: Recombinant human Myt1 kinase assay (ADP-Glo). The test is classed as biochemical. The note with it: 10 μM ATP. The procedure, abridged:
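ADP-Glo luminescence measured ATP hydrolysis by recombinant full-length PKMYT1 (18 nM) after 60 min at 30 °C with 10 μM ATP. Compounds in 0.5% DMSO were added to the enzyme 15 min before ATP, at 22 °C, in HEPES/MgCl2/MnCl2 buffer. IC50 and percent maximal inhibition were derived.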

Test [2] deals with PKMYT1 (CDK1 pThr14) in FUOV1 cells. The test can be described thus: PKMYT1 cell-based activity assay, CDK1 pThr14 AlphaLISA in FUOV1 cells. The note with it: read-out: FUOV-1 CDK1 pThr14 IC50. The procedure, abridged: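 IC50 was derived from AlphaLISA signal (excitation 680 nm, emission 615 nm) for phospho-Thr14 CDK1 in lysates. The detection antibodies were rabbit anti-pThr14 and mouse anti-total CDK1, each at 5 nM. FUOV1 ovarian cells were exposed to compound for 2 hours before lysis.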
(In general: In Alpha technology, singlet oxygen from a donor bead excites a nearby acceptor bead.)

recombinant human Myt1 (full length PKMYT1), sequence (Q99640 whole entry): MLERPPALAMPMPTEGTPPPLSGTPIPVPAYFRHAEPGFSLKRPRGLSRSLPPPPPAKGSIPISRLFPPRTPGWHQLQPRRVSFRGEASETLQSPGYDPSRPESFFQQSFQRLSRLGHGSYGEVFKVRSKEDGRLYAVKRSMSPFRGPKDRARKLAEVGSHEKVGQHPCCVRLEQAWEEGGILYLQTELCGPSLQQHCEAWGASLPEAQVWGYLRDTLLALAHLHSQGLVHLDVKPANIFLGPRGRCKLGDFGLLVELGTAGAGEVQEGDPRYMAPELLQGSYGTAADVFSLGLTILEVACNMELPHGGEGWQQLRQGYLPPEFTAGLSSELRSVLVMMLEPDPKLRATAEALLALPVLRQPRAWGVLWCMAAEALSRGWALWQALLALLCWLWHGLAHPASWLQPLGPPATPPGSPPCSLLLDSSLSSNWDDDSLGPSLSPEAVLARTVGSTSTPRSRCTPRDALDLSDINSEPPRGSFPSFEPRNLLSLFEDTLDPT

Regarding `Cc1ccc2[nH]ncc2c1-c1nc(-c2ccccc2NC(=O)C2CC(C)(C)C2)nc(C(N)=O)c1N` [Compound 417], the IC50 (usually the midpoint of a concentration-inhibition curve) in test [1] came out at 18 nM; in test [2] (2 h, 2 h compound incubation) it was 899 nM.

As for `Cc1ccc2[nH]ncc2c1-c1nc(-c2cn(C)nc2NC2CC(F)(F)C2)nc(C(N)=O)c1N` [Compound 896], the IC50 in test [1] amounted to 4 nM; in test [2] (2 h, 2 hours with compound) it was 147 nM.

On to `Cc1ccc2[nH]ncc2c1-c1nc(-c2ccccc2NC(=O)C2(C)CC(F)(F)C2)nc(C(N)=O)c1N` [Compound 462], for which the IC50 in test [1] turned out to be 4 nM; in test [2] (2 h, 2 h compound incubation), 137 nM.

As for `Cc1ccc2[nH]ncc2c1-c1nc(-c2cccc(F)c2NC(=O)C2(C)CC2)nc(C(N)=O)c1N` [Compound 456], the concentration for half-maximal inhibition (IC50) in test [1] is 6 nM; in test [2] (2 h, 2 h compound incubation), 158 nM.

`Cc1ccc2[nH]ncc2c1-c1nc(-c2ccccc2NC(C)C(F)(F)F)nc(C(N)=O)c1N` (stereo not shown) [Compound 381, 5-amino-6-(5-methyl-1H-indazol-4-yl)-2-(2-((1,1,1-trifluoropropan-2-yl)amino)phenyl)pyrimidine-4-carboxamide]: the half-inhibitory concentration (IC50) amounted to 11 nM in test [1] and 13 nM in test [2] (2 h, 2 h incubation).

As for `Cc1ccc(O)cc1-c1nc(-c2cccc(Cl)c2)nc(C(N)=O)c1N` [Compound 29], the IC50 in test [1] was found to be 25 nM; in test [2] (2 h, 2 h incubation) it was 1220 nM.

As for `Cc1ccc2[nH]ncc2c1-c1nc(-c2cc(F)cnc2N[C@H]2CC[C@](O)(C(F)(F)F)CC2)nc(C(N)=O)c1N` [Compound 835], the 50% inhibitory concentration (IC50) was 11 nM in test [1] and 86 nM in test [2] (2 h, 2 hours with compound).

In the case of `Cc1ccc2[nH]ncc2c1-c1cc(-c2cccc(OCc3ccncn3)n2)nc(C(N)=O)c1N` [Compound 244], the IC50 in test [1] came out at 11 nM; in test [2] (2 h, 2 h incubation) it was 193 nM.

Regarding `Cc1ccc2[nH]ncc2c1-c1nc(-c2cccc3c2NC(=O)C3(F)F)nc(C(N)=O)c1N` [Compound 395], the half-inhibitory concentration (IC50) in test [1] was determined as 17 nM; in test [2] (2 h, 2 h compound incubation), 780 nM.

As to `Cc1ccc2[nH]ncc2c1-c1nc(-c2cccnc2Nc2ccccc2F)nc(C(N)=O)c1N` [Compound 610], the IC50 was 10 nM in test [1] and 397 nM in test [2] (2 h, 2 h compound incubation).

For the compound `Cc1ccc2[nH]ncc2c1-c1nc(-c2cc(F)c(F)cc2NC(=O)C2(C)CC2)nc(C(N)=O)c1N` [Compound 446], the IC50 came out at 8 nM in test [1] and 8 nM in test [2] (2 h, 2 h compound incubation).

On to `Cc1ccc2[nH]ncc2c1-c1nc(-c2cccnc2NC[C@@H]2CCOC2)nc(C(N)=O)c1N` [Compound 602], for which the concentration for half-maximal inhibition (IC50) was 4 nM in test [1] and 29 nM in test [2] (2 h, 2 h compound incubation).

As to `Cc1ccc2[nH]ncc2c1-c1cc(-c2cccc(OCc3ncccn3)n2)nc(C(N)=O)c1N` [Compound 184], the IC50 came to 6 nM in test [1] and 51 nM in test [2] (2 h, 2 h incubation).

As to `Cc1ccc2[nH]ncc2c1-c1nc(-c2cccnc2N[C@@H]2CCOCC2(C)C)nc(C(N)=O)c1N` [Compound 829], the 50% inhibitory concentration (IC50) was less than 3 nM in test [1] and 10 nM in test [2] (2 h, 2 hours with compound).

As to `Cc1ccc2[nH]ncc2c1-c1cc(-c2cccc(OCCN3CCNCC3)n2)nc(C(N)=O)c1N` [Compound 183], the IC50 in test [1] came to 13 nM; in test [2] (2 h, 2 h incubation), 281 nM.

With `Cc1ccc2[nH]ncc2c1-c1nc(-c2cc(F)c(F)cc2NC(=O)C2(C)CCN(C)C2)nc(C(N)=O)c1N` (stereo not shown) [Compound 484], the concentration for half-maximal inhibition (IC50) in test [1] is 7 nM; in test [2] (2 h, 2 h compound incubation), 23 nM.

For `Cc1ccc2[nH]ncc2c1-c1cc(-c2ccnc(OCCc3cc[nH]n3)n2)nc(C(N)=O)c1N` [Compound 265], the IC50 in test [1] amounted to 4 nM; in test [2] (2 h, 2 h incubation), 387 nM.

Turning to `Cc1ccc2[nH]ncc2c1-c1nc(-c2cccnc2N[C@@H]2CCO[C@@H](C)C2)nc(C(N)=O)c1N` [Compound 605], the IC50 in test [1] is 4 nM; in test [2] (2 h, 2 h compound incubation), 283 nM.

Regarding `Cc1cccc(-c2nc(C(N)=O)c(N)c(-c3c(C)ccc4[nH]ncc34)n2)c1` [Compound 101], the concentration for half-maximal inhibition (IC50) was 26 nM in test [1] and 570 nM in test [2] (2 h, 2 h incubation).

On to `Cc1ccc2[nH]ncc2c1-c1nc(-c2cccnc2NC2CCOCC2C)nc(C(N)=O)c1N` (stereo not shown) [Compound 606], for which the IC50 in test [1] came out at 2 nM; in test [2] (2 h, 2 h compound incubation) it was 67 nM.

Take `Cc1ccc2[nH]ncc2c1-c1nc(-c2ccc3c(cnn3C)c2)nc(C(N)=O)c1N` [Compound 114]: the half-inhibitory concentration (IC50) in test [1] came to 46 nM; in test [2] (2 h, 2 h incubation), 3760 nM.

Turning to `Cc1ccc(O)c(C)c1-c1cc(-c2cccc(OC3CCOCC3)n2)nc(C(N)=O)c1N` [Compound 94], the IC50 in test [1] is 2 nM; in test [2] (2 h incubation), 31 nM.

Take `Cc1ccc2[nH]ncc2c1-c1cc(-c2cccc(OCc3ccnnc3)n2)nc(C(N)=O)c1N` [Compound 326]: the 50% inhibitory concentration (IC50) is 5 nM in test [1] and 134 nM in test [2] (2 h, 2 h incubation).

As to `Cc1ccc2[nH]ncc2c1-c1cc(-c2ccnc(OCc3ccccn3)n2)nc(C(N)=O)c1N` [Compound 229], the IC50 worked out at 4 nM in test [1] and 134 nM in test [2] (2 h, 2 h incubation).

Consider `Cc1ccc2[nH]ncc2c1-c1cc(C(N)=O)nc(-c2cccnc2Nc2nc(F)ccc2F)n1` [Compound 499, 2-(2-((3,6-difluoropyridin-2-yl)amino)pyridin-3-yl)-6-(5-methyl-1H-indazol-4-yl)pyrimidine-4-carboxamide], for which the IC50 in test [1] came to 4 nM; in test [2] (2 h, 2 h compound incubation), 209 nM.

As to `CCNC(=O)c1ccccc1-c1nc(C(N)=O)c(N)c(-c2c(C)ccc3[nH]ncc23)n1` [Compound 807], the 50% inhibitory concentration (IC50) is 4050 nM in test [1] and greater than 10000 nM in test [2] (2 h, 2 hours with compound).

In the case of `Cc1ccc2[nH]ncc2c1-c1cc(-c2cccc(Oc3cccc(N4CCCC4)c3)n2)nc(C(N)=O)c1N` [Compound 182], the IC50 in test [1] came to 15 nM; in test [2] (2 h, 2 h incubation) it was 1600 nM.

Turning to `Cc1nnc(-c2cccc(-c3nc(C(N)=O)c(N)c(-c4c(C)ccc5[nH]ncc45)n3)c2)o1` [Compound 290], the 50% inhibitory concentration (IC50) in test [1] came to 6 nM; in test [2] (2 h, 2 h incubation) it was 167 nM.

Regarding `Cc1ccc2[nH]ncc2c1-c1cc(-c2ccnc(N)c2)nc(C(N)=O)c1N` [Compound 189], the IC50 was determined as 21 nM in test [1] and 1220 nM in test [2] (2 h, 2 h incubation).

(Values after patent US20250304537A1 (Repare Therapeutics Inc., priority 2022, published 2025).)
